From patent US20250129104A1, “7H-PYRROLO[2,3-D]PYRIMIDINES AND PREPARATION AND USES THEREOF” (BioSplice Therapeutics, Inc., priority 2021, published 2025) come the findings set out here.

The structures appear in SMILES notation.

The assay has as its target recombinant DYRK1A kinase (Homo sapiens (Human), UniProt Q13627). Kind of assay: DYRK1A kinase assay (Ser/Thr 18 peptide Z-lyte FRET assay). It counts as biochemical. Conditions: DYRK1A kinase activity; 15 μM ATP, 1 h room temperature; method text calls the value IC50. The essentials: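 FRET Z-lyte read-out (coumarin/fluorescein ratio, % phosphorylation) after 1 h development; IC50 from non-linear curve fit. Reaction: 0.25 μg/mL recombinant human DYRK1A, Ser/Thr 18 peptide 4 μM, ATP 15 μM, compound in 11-point 1:3 series from 10 μM, 1 h, room temperature, duplicate wells.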

Turning to `Fc1cc(-c2c[nH]c3nc(N[C@H]4CC[C@@H](OCC(F)F)CC4)ncc23)cn2ccnc12` [Compound 2181, N-(cis-4-(2,2-Difluoroethoxy)cyclohexyl)-5-(8-fluoroimidazo[1,2-a]pyridin-6-yl)-7H-pyrrolo[2,3-d]pyrimidin-2-amine], the EC50 was found to be 5.1 nM.

As to `OCCO[C@H]1CC[C@@H](Nc2ncc3c(-c4cc(F)c5nccn5c4)c[nH]c3n2)CC1` [Compound 2182, 2-((cis-4-((5-(8-Fluoroimidazo[1,2-a]pyridin-6-yl)-7H-pyrrolo[2,3-d]pyrimidin-2-yl)amino)cyclohexyl)oxy)ethan-1-ol], the EC50 came out at 3.1 nM.

Consider `COc1nc(N[C@H](C)C(F)(F)F)nc2[nH]cc(-c3cc(F)c4nccn4c3)c12` [Compound 2183, (R)-5-(8-Fluoroimidazo[1,2-a]pyridin-6-yl)-4-methoxy-N-(1,1,1-trifluoropropan-2-yl)-7H-pyrrolo[2,3-d]pyrimidin-2-amine], for which the EC50 was 10.4 nM.

Turning to `COC[C@@H](C)Nc1nc(OC)c2c(-c3cc(F)c4nccn4c3)c[nH]c2n1` [Compound 2184], the EC50 is 69.9 nM.

As for `COc1nc(NC2CCC(F)(F)CC2)nc2[nH]cc(-c3cc(F)c4nccn4c3)c12` [Compound 2185, N-(4,4-Difluorocyclohexyl)-5-(8-fluoroimidazo[1,2-a]pyridin-6-yl)-4-methoxy-7H-pyrrolo[2,3-d]pyrimidin-2-amine], the EC50 came out at 82 nM.

Turning to `COc1nc(N[C@H]2CC[C@@](C)(O)CC2)nc2[nH]cc(-c3cc(F)c4nccn4c3)c12` [Compound 2186, cis-4-((5-(8-Fluoroimidazo[1,2-a]pyridin-6-yl)-4-methoxy-7H-pyrrolo[2,3-d]pyrimidin-2-yl)amino)-1-methylcyclohexan-1-ol], the EC50 was 2.3 nM.

With `COc1nc(N[C@H]2CC[C@@H](OCC(F)F)CC2)nc2[nH]cc(-c3cc(F)c4nccn4c3)c12` [Compound 2187, N-(cis-4-(2,2-Difluoroethoxy)cyclohexyl)-5-(8-fluoroimidazo[1,2-a]pyridin-6-yl)-4-methoxy-7H-pyrrolo[2,3-d]pyrimidin-2-amine], the EC50 was 3.6 nM.

On to `COc1nc(NC2CCC3(CC2)OCCO3)nc2[nH]cc(-c3cc(F)c4nccn4c3)c12` [Compound 2188, 5-(8-Fluoroimidazo[1,2-a]pyridin-6-yl)-4-methoxy-N-(1,4-dioxaspiro[4.5]decan-8-yl)-7H-pyrrolo[2,3-d]pyrimidin-2-amine], for which the EC50 worked out at 1.9 nM.

Consider `CCOc1nc(N[C@H](C)C(F)(F)F)nc2[nH]cc(-c3cc(F)c4nccn4c3)c12` [Compound 2189, (R)-4-Ethoxy-5-(8-fluoroimidazo[1,2-a]pyridin-6-yl)-N-(1,1,1-trifluoropropan-2-yl)-7H-pyrrolo[2,3-d]pyrimidin-2-amine], for which the EC50 was 8.1 nM.

For the compound `CCOc1nc(N[C@H]2CC[C@@H](O)CC2)nc2[nH]cc(-c3cc(F)c4nccn4c3)c12` [Compound 2190, cis-4-((4-Ethoxy-5-(8-fluoroimidazo[1,2-a]pyridin-6-yl)-7H-pyrrolo[2,3-d]pyrimidin-2-yl)amino)cyclohexan-1-ol], the concentration giving a half-maximal response (EC50) was 3 nM.

Consider `Cn1nnc2ccc(-c3c[nH]c4nc(N[C@H]5CC[C@@](C)(O)CC5)ncc34)cc21` [Compound 2191, cis-1-Methyl-4-((5-(1-methyl-1H-benzo[d][1,2,3]triazol-6-yl)-7H-pyrrolo[2,3-d]pyrimidin-2-yl)amino)cyclohexan-1-ol], for which the EC50 was found to be 4.7 nM.

On to `Cn1nnc2ccc(-c3c[nH]c4nc(N[C@H]5CC[C@@H](OCC(F)F)CC5)ncc34)cc21` [Compound 2192, N-(cis-4-(2,2-Difluoroethoxy)cyclohexyl)-5-(1-methyl-1H-benzo[d][1,2,3]triazol-6-yl)-7H-pyrrolo[2,3-d]pyrimidin-2-amine], for which the EC50 was 6.9 nM.

Turning to `COc1nc(N[C@H](C)C(F)(F)F)nc2[nH]cc(-c3ccc4nnn(C)c4c3)c12` [Compound 2193, (R)-4-Methoxy-5-(1-methyl-1H-benzo[d][1,2,3]triazol-6-yl)-N-(1,1,1-trifluoropropan-2-yl)-7H-pyrrolo[2,3-d]pyrimidin-2-amine], the EC50 is 2.1 nM.

For the compound `COC[C@@H](C)Nc1nc(OC)c2c(-c3ccc4nnn(C)c4c3)c[nH]c2n1` [Compound 2194, (R)-4-Methoxy-N-(1-methoxypropan-2-yl)-5-(1-methyl-1H-benzo[d][1,2,3]triazol-6-yl)-7H-pyrrolo[2,3-d]pyrimidin-2-amine], the EC50 was found to be 5.5 nM.

With `COc1nc(NC2CCN(C)CC2)nc2[nH]cc(-c3ccc4nnn(C)c4c3)c12` [Compound 2195, 4-Methoxy-5-(1-methyl-1H-benzo[d][1,2,3]triazol-6-yl)-N-(1-methylpiperidin-4-yl)-7H-pyrrolo[2,3-d]pyrimidin-2-amine], the EC50 was 9.4 nM.

As to `CCOc1nc(N[C@H](C)C(F)(F)F)nc2[nH]cc(-c3ccc4nnn(C)c4c3)c12` [Compound 2196, (R)-4-Ethoxy-5-(1-methyl-1H-benzo[d][1,2,3]triazol-6-yl)-N-(1,1,1-trifluoropropan-2-yl)-7H-pyrrolo[2,3-d]pyrimidin-2-amine], the EC50 was determined as 11.6 nM.

Regarding `CCOc1nc(N[C@H]2CC[C@@H](O)CC2)nc2[nH]cc(-c3ccc4nnn(C)c4c3)c12` [Compound 2197, cis-4-((4-Ethoxy-5-(1-methyl-1H-benzo[d][1,2,3]triazol-6-yl)-7H-pyrrolo[2,3-d]pyrimidin-2-yl)amino)cyclohexan-1-ol], the EC50 worked out at 1.5 nM.

Consider `COc1nc(NC2CCC(F)(F)CC2)nc2[nH]cc(-c3ccc4nnn(CC(F)F)c4c3)c12` [Compound 2198, N-(4,4-Difluorocyclohexyl)-5-(1-(2,2-difluoroethyl)-1H-benzo[d][1,2,3]triazol-6-yl)-4-methoxy-7H-pyrrolo[2,3-d]pyrimidin-2-amine], for which the half-maximal effective concentration (EC50) worked out at 170 nM.

With `FC(F)CO[C@H]1CC[C@@H](Nc2ncc3c(-c4ccc5nccn5n4)c[nH]c3n2)CC1` [Compound 2199, N-(cis-4-(2,2-Difluoroethoxy)cyclohexyl)-5-(imidazo[1,2-b]pyridazin-6-yl)-7H-pyrrolo[2,3-d]pyrimidin-2-amine], the EC50 was 2.2 nM.

`[2H]C([2H])([2H])O[C@H]1CC[C@@H](Nc2ncc3c(-c4ccn5nccc5c4)c[nH]c3n2)CC1` [Compound 2200, N-(cis-4-(Methoxy-d3)cyclohexyl)-5-(pyrazolo[1,5-a]pyridin-5-yl)-7H-pyrrolo[2,3-d]pyrimidin-2-amine]: the EC50 amounted to 2.6 nM.

`FC(F)CO[C@H]1CC[C@@H](Nc2ncc3c(-c4ccn5nccc5c4)c[nH]c3n2)CC1` [Compound 2201, N-(cis-4-(2,2-Difluoroethoxy)cyclohexyl)-5-(pyrazolo[1,5-a]pyridin-5-yl)-7H-pyrrolo[2,3-d]pyrimidin-2-amine]: the EC50 was found to be 5 nM.

For `OCCO[C@H]1CC[C@@H](Nc2ncc3c(-c4ccn5nccc5c4)c[nH]c3n2)CC1` [Compound 2202, 2-((cis-4-((5-(Pyrazolo[1,5-a]pyridin-5-yl)-7H-pyrrolo[2,3-d]pyrimidin-2-yl)amino)cyclohexyl)oxy)ethan-1-ol], the EC50 amounted to 3.9 nM.

Regarding `COCCO[C@H]1CC[C@@H](Nc2ncc3c(-c4ccn5nccc5c4)c[nH]c3n2)CC1` [Compound 2203, N-(cis-4-(2-Methoxyethoxy)cyclohexyl)-5-(pyrazolo[1,5-a]pyridin-5-yl)-7H-pyrrolo[2,3-d]pyrimidin-2-amine], the EC50 turned out to be 3.4 nM.

For the compound `COc1nc(N[C@H](C)C(F)(F)F)nc2[nH]cc(-c3ccn4nccc4c3)c12` [Compound 2204, (R)-4-Methoxy-5-(pyrazolo[1,5-a]pyridin-5-yl)-N-(1,1,1-trifluoropropan-2-yl)-7H-pyrrolo[2,3-d]pyrimidin-2-amine], the EC50 is 15.4 nM.

Turning to `COC[C@@H](C)Nc1nc(OC)c2c(-c3ccn4nccc4c3)c[nH]c2n1` [Compound 2205, (R)-4-Methoxy-N-(1-methoxypropan-2-yl)-5-(pyrazolo[1,5-a]pyridin-5-yl)-7H-pyrrolo[2,3-d]pyrimidin-2-amine], the EC50 was 79.5 nM.

On to `COc1nc(NC2CCC(F)(F)CC2)nc2[nH]cc(-c3ccn4nccc4c3)c12` [Compound 2206, N-(4,4-Difluorocyclohexyl)-4-methoxy-5-(pyrazolo[1,5-a]pyridin-5-yl)-7H-pyrrolo[2,3-d]pyrimidin-2-amine], for which the EC50 was found to be 3.2 nM.

As for `COc1nc(N[C@H]2CC[C@@H](O)CC2)nc2[nH]cc(-c3ccn4nccc4c3)c12` [Compound 2207, cis-4-((4-Methoxy-5-(pyrazolo[1,5-a]pyridin-5-yl)-7H-pyrrolo[2,3-d]pyrimidin-2-yl)amino)cyclohexan-1-ol], the EC50 is 1.7 nM.

For the compound `COc1nc(N[C@H]2CC[C@@](C)(O)CC2)nc2[nH]cc(-c3ccn4nccc4c3)c12` [Compound 2208, cis-4-((4-Methoxy-5-(pyrazolo[1,5-a]pyridin-5-yl)-7H-pyrrolo[2,3-d]pyrimidin-2-yl)amino)-1-methylcyclohexan-1-ol], the EC50 is 4.3 nM.

With `COc1nc(N[C@H]2CC[C@](C)(O)CC2)nc2[nH]cc(-c3ccn4nccc4c3)c12` [Compound 2209, trans-4-((4-Methoxy-5-(pyrazolo[1,5-a]pyridin-5-yl)-7H-pyrrolo[2,3-d]pyrimidin-2-yl)amino)-1-methylcyclohexan-1-ol], the EC50 amounted to 1.6 nM.

`[2H]C([2H])([2H])O[C@H]1CC[C@@H](Nc2nc(OC)c3c(-c4ccn5nccc5c4)c[nH]c3n2)CC1` [Compound 2210, 4-Methoxy-N-(cis-4-(methoxy-d3)cyclohexyl)-5-(pyrazolo[1,5-a]pyridin-5-yl)-7H-pyrrolo[2,3-d]pyrimidin-2-amine]: the EC50 turned out to be 3.4 nM.

Turning to `COc1nc(N[C@H]2CC[C@@H](OC(F)F)CC2)nc2[nH]cc(-c3ccn4nccc4c3)c12` [Compound 2211, N-(cis-4-(Difluoromethoxy)cyclohexyl)-4-methoxy-5-(pyrazolo[1,5-a]pyridin-5-yl)-7H-pyrrolo[2,3-d]pyrimidin-2-amine], the EC50 was 126 nM.
